Reference: ChEMBL document CHEMBL1240505, “Studies on preparation and photodynamic mechanism of chlorin P6-13,15-N-(cyclohexyl)cycloimide (Chlorin-H) and its antitumor effect for photodynamic therapy in vitro and in vivo” (Bioorg Med Chem, 2010)
Active and inactive are the calls of the source. The rule behind the calls is not given here.

How the values were obtained:
A549 [1] = assay: Antitumor activity against human A549 cells xenografted in nude BALB/C mouse assessed as scab formation at 8 uM after 24 hrs followed by irradiated with light dose 78 J/cm2 measured after 20 days; format: functional, cell-based
A549 [2] = assay: Antitumor activity against human A549 cells xenografted in nude BALB/C mouse assessed as reduction of tumor growth at 8 uM after 20 days; format: functional, cell-based
[3] = Drug uptake in human U87 cell mitochondria by using Hoechst 33258 staining; format: ADME; conditions: u-87mg atcc
[4] = Drug uptake in human U87 cell nucleus by using Hoechst 33258 staining; format: ADME, cell-based; conditions: u-87mg atcc
[5] = Drug uptake in human A549 cell mitochondria by using Hoechst 33258 staining; format: ADME
[6] = Drug uptake in human A549 cell nucleus by using Hoechst 33258 staining; format: ADME, cell-based
AGS = assay: Cytotoxicity against human AGS cells assessed as cell death at 4 uM after 24 hrs followed by irradiated with light dose 0.18 J/cm2 by MTT assay; format: functional, cell-based
SGC-7901 = assay: Cytotoxicity against human SGC7901 cells assessed as cell death at 4 uM after 24 hrs followed by irradiated with light dose 0.18 J/cm2 by MTT assay; format: functional, cell-based
A549 [7] = assay: Cytotoxicity against human A549 cells assessed as cell death at 4 uM after 24 hrs followed by irradiated with light dose 0.18 J/cm2 by MTT assay; format: functional, cell-based
SW480 = assay: Cytotoxicity against human SW480 cells assessed as cell death at 4 uM after 24 hrs followed by irradiated with light dose 0.18 J/cm2 by MTT assay; format: functional, cell-based
HL-60 [8] = assay: Cytotoxicity against human HL60 cells assessed as cell death at 4 uM after 24 hrs followed by irradiated with light dose 0.18 J/cm2 by MTT assay; format: functional, cell-based
HL-60 [9] = assay: Cytotoxicity against human HL60 cells assessed as cell survival at 4 uM after 24 hrs followed by irradiated with light dose 0.18 J/cm2 by MTT assay; format: functional; conditions: HL-60, light or radiation study, read-out: Activity
A549 [10] = assay: Antiproliferative activity against human A549 cells assessed as reduction of colony formation at 4 uM irradiated with light dose 0.18 J/cm2 for 14 days before compound challenge measured after 24 hrs using giemsa staining by microscopic analysis; format: functional, cell-based
A549 [11] = assay: Inhibition of cell invasion in human A549 cells assessed as invasion index at 4 uM after 72 hrs followed by irradiated with light dose 0.18 J/cm2 relative to control; format: functional; conditions: A549, light or radiation study
A549 [12] = assay: Inhibition of cell invasion in human A549 cells assessed as invasion index at 4 uM after 72 hrs relative to control; format: functional; conditions: A549, 72 h
A549 [13] = assay: Cell cycle arrest in human A549 cells assessed as accumulation at G0/G1 phase at 4 uM after 24 hrs by flow cytometry; format: functional
A549 [14] = assay: Cell cycle arrest in human A549 cells assessed as accumulation at G2/M phase at 4 uM after 24 hrs by flow cytometry; format: functional
A549 [15] = assay: Cell cycle arrest in human A549 cells assessed as accumulation at S phase at 4 uM after 24 hrs by flow cytometry; format: functional
A549 [16] = assay: Cell cycle arrest in human A549 cells assessed as accumulation at G0/G1 phase at 4 uM after 24 hrs followed by irradiated with light dose 0.18 J/cm2 by flow cytometry; format: functional
A549 [17] = assay: Cell cycle arrest in human A549 cells assessed as accumulation at G2/M phase at 4 uM after 24 hrs followed by irradiated with light dose 0.18 J/cm2 by flow cytometry; format: functional
A549 [18] = assay: Cell cycle arrest in human A549 cells assessed as accumulation at S phase at 4 uM after 24 hrs followed by irradiated with light dose 0.18 J/cm2 by flow cytometry; format: functional
A549 [19] = assay: Induction of apoptosis in human A549 cells assessed as pre-necrotic cells at 4 uM after 24 hrs using annexin-V FITC/PI double staining by flow cytometry; format: functional
A549 [20] = assay: Induction of apoptosis in human A549 cells assessed as late apoptotic cells at 4 uM after 24 hrs using annexin-V FITC/PI double staining by flow cytometry; format: functional
A549 [21] = assay: Induction of apoptosis in human A549 cells assessed as viable cells at 4 uM after 24 hrs using annexin-V FITC/PI double staining by flow cytometry; format: functional; conditions: A549, 24 h, read-out: Activity
A549 [22] = assay: Induction of apoptosis in human A549 cells assessed as apoptotic cells at 4 uM after 24 hrs using annexin-V FITC/PI double staining by flow cytometry; format: functional
A549 [23] = assay: Induction of apoptosis in human A549 cells assessed as pre-necrotic cells at 4 uM after 24 hrs followed by irradiated with light dose 0.18 J/cm2 using annexin-V FITC/PI double staining by flow cytometry; format: functional
A549 [24] = assay: Induction of apoptosis in human A549 cells assessed as late apoptotic cells at 4 uM after 24 hrs followed by irradiated with light dose 0.18 J/cm2 using annexin-V FITC/PI double staining by flow cytometry; format: functional
A549 [25] = assay: Induction of apoptosis in human A549 cells assessed as viable cells at 4 uM after 24 hrs followed by irradiated with light dose 0.18 J/cm2 using annexin-V FITC/PI double staining by flow cytometry; format: functional; conditions: A549, light or radiation study, read-out: Activity
A549 [26] = assay: Induction of apoptosis in human A549 cells assessed as apoptotic cells at 4 uM after 24 hrs followed by irradiated with light dose 0.18 J/cm2 using annexin-V FITC/PI double staining by flow cytometry; format: functional
A549 [27] = assay: Induction of apoptosis in human A549 cells assessed as pre-necrotic cells at 4 uM after 24 hrs using annexin-V-PE/7-AAD double staining by flow cytometry; format: functional

With `C=Cc1c(C)c2cc3nc(c4c5[nH]c(cc6nc(cc1[nH]2)C(C)=C6CC)c(C)c5C(=O)N(C1CCCCC1)C4=O)[C@@H](CCC(=O)O)[C@@H]3C` the Activity (A549 [1]) was “Active”, the Activity (A549 [2]) was “inactive” and the Drug uptake [3] was “Active”. For the same compound, the Drug uptake [4] was “Active”, the Drug uptake [5] was “Active” and the Drug uptake [6] was “Active”. The Activity (AGS) was “Active”, the Activity (SGC-7901) was “Active” and the Activity (A549 [7]) was “Active”. The Activity (SW480) was “Active”, the Activity (HL-60 [8]) was “Active” and the viability at 4 µM (HL-60 [9]) was 78.6%. For the same compound, the Activity (A549 [10]) was “Active”, the inhibition at 4 µM (A549 [11]) was 15.7% and the inhibition at 4 µM (A549 [12]) was 76.4%. The Activity (A549 [13]) was 53.48%, the Activity (A549 [14]) was 11.07% and the Activity (A549 [15]) was 35.44%. It also gave an Activity (A549 [16]) of 22.37%, an Activity (A549 [17]) of 56.07% and an Activity (A549 [18]) of 21.56%. It also gave an Activity (A549 [19]) of 0.24%, an Activity (A549 [20]) of 3.03% and a viability at 4 µM (A549 [21]) of 92.3%. For the same compound, the Activity (A549 [22]) was 0.99%, the Activity (A549 [23]) was 0.4% and the Activity (A549 [24]) was 23.28%. The viability at 4 µM (A549 [25]) was 2.08%, the Activity (A549 [26]) was 74.24% and the Activity (A549 [27]) was 0.41%.
